In assay [1] the test system is LTB4 production in murine blood (LTA4H). Put plainly: LTB4 production by calcium ionophore-stimulated murine blood for LTA4H inhibitor activity. It is filed as cell-based, CD-1 mice. Particulars: Mus musculus; murine blood diluted 1 in 15, A23187 stimulated; single determination or average; mark after value = form tested: ′ free base, ″ hydrochloride, ^ formate; read-out: IC50. The procedure:
Assay 2: LTB4 Production by Calcium Ionophore-Stimulated Murine Blood for LTA4H Inhibitor Activity
CD-1 mice were sacrificed, and blood was collected in heparin-containing syringes by cardiac puncture. […] After the microtiter plate contents were incubated for 15 min at 37° C. in a humidified incubator, calcium ionophore A23187 (Sigma Chemical Co., St. Louis, Mo.) was added to each sample well (final concentration=7 μg/mL). The incubation was continued under the same conditions for an additional 30 min to allow LTB4 formation. The reaction was terminated by centrifugation (833×g, 10 min at 4° C.), and supernatants were analyzed for LTB4 by a commercially available enzyme-linked immunoassay (Cayman Chemical Co.) according to the manufacturer's instructions. Positive controls, under essentially identical conditions but without addition of an inhibitor compound, and negative unstimulated controls, containing all assay components except calcium ionophore, were routinely run in each experiment. […] The values presented here are the result of a single determination or an average of two or more determinations.

Assay [2] addresses T1, recombinant human LTA4 hydrolase (rhLTA4H) (Homo sapiens, UniProt P09960).
T1 construct: made in house; host or cells: Spodoptera frugiperda (Sf-9) cells, baculovirus (pFastBac1)
T1 sequence (P09960 1-611): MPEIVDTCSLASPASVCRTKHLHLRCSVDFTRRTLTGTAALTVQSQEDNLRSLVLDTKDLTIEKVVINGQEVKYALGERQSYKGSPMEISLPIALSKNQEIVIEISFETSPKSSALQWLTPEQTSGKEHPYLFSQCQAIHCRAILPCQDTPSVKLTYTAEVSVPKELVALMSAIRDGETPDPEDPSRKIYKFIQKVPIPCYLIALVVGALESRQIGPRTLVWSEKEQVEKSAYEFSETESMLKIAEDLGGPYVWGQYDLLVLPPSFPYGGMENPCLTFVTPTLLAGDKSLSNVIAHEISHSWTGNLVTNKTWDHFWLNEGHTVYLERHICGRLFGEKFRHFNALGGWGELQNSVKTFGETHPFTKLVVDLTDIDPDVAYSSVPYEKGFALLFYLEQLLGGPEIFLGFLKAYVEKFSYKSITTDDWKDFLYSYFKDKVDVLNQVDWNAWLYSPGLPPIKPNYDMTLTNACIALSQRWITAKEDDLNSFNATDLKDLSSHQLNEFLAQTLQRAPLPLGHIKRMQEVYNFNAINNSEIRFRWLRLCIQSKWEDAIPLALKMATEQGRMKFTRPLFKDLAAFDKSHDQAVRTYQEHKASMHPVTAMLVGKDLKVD
Kind of assay: Recombinant human LTA4 hydrolase assay for LTA4 hydrolase inhibitor activity. It is filed as biochemical. The conditions noted are these: rhLTA4H, LTB4 by immunoassay; single determination or average of two or more; mark after value = form tested: ′ free base, ″ hydrochloride, ^ formate; read-out: IC50. The procedure, abridged: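 Baculovirus/Sf-9-expressed human LTA4H (10 ng) was preincubated 10 min at rt with compound in assay buffer (10% DMSO in compound dilution), then reacted 30 min at rt with LTA4 free acid made from its methyl ester. LTB4 produced was measured by ELISA after dilution; IC50 from non-linear regression, single or averaged determinations.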

Each structure is given as a SMILES string. Where a name gives a salt, the structure may show the parent alone. Some results are limits rather than exact numbers.

Regarding `O=c1[nH]ncn1C1CCN(Cc2coc3cc(Oc4nc5ncccc5s4)ccc23)CC1` [Example 351, 4-{1-[6-(Thiazolo[4,5-b]pyridin-2-yloxy)-benzofuran-3-ylmethyl]-piperidin-4-yl}-2,4-dihydro-[1,2,4]triazol-3-one], the IC50 was 0.094 µM in assay [1] and 0.002 µM in assay [2].

Regarding `O=C(c1coc2cc(Oc3nc4ncccc4s3)ccc12)N1CCCCC1` [Example 383, Piperidin-1-yl-[6-(thiazolo[4,5-b]pyridin-2-yloxy)-benzofuran-3-yl]-methanone], the IC50 in assay [1] worked out at 0.2 µM; in assay [2], 0.05 µM.

In the case of `CC(=O)N1CC2CN(Cc3cc4ccc(Oc5nc6ncccc6s5)cc4o3)CC2C1` (centres unmarked) [Example 195, 1-{5-[6-(Thiazolo[4,5-b]pyridin-2-yloxy)-benzofuran-2-ylmethyl]-hexahydro-pyrrolo[3,4-c]pyrrol-2-yl}-ethanone], the IC50 was determined as 0.151 µM in assay [1] and 0.08 µM in assay [2].

On to `OC1CN(Cc2coc3cc(Oc4nc5ncccc5s4)ccc23)C1` [Example 315, 1-[6-(Thiazolo[4,5-b]pyridin-2-yloxy)-benzofuran-3-ylmethyl]-azetidin-3-ol], for which the values for the IC50 in assay [1] and in assay [2] were 0.034 µM and 0.01 µM, respectively.

On to `c1cnc2nc(Oc3ccc4c(CN5CCSCC5)c[nH]c4c3)sc2c1` [Example 42, 2-(3-Thiomorpholin-4-ylmethyl-1H-indol-6-yloxy)-thiazolo[4,5-b]pyridine], for which the IC50 was 0.027 µM in assay [1] and less than 0.001 µM in assay [2].

Take `Fc1ccc2sc3c(c2c1)CN(Cc1c[nH]c2cc(Oc4nc5ncccc5s4)ccc12)CC3` [Example 38, 8-Fluoro-2-[6-(thiazolo[4,5-b]pyridin-2-yloxy)-1H-indol-3-ylmethyl]-1,2,3,4-tetrahydro-benzo[4,5]thieno[3,2-c]pyridine]: the IC50 in assay [1] worked out at 0.35 µM; in assay [2], 0.029 µM.

`c1ccc(CCN2CCN(Cc3coc4cc(Oc5nc6ncccc6s5)ccc34)CC2)cc1` [Example 291, 2-[3-(4-Phenethyl-piperazin-1-ylmethyl)-benzofuran-6-yloxy]-thiazolo[4,5-b]pyridine formate]: the values for the IC50 in assay [1] and in assay [2] were 0.13 µM and 0.014 µM, respectively.

On to `FC1(F)CN(Cc2coc3cc(Oc4nc5ncccc5s4)ccc23)C1` [Example 316, 2-[3-(3,3-Difluoro-azetidin-1-ylmethyl)-benzofuran-6-yloxy]-thiazolo[4,5-b]pyridine], for which the values for the IC50 in assay [1] and in assay [2] were 0.12 µM and 0.029 µM, respectively.

For the compound `c1cnc2nc(Oc3ccc4c(CN5CCN(C6CC6)CC5)coc4c3)sc2c1` [Example 277, 2-[3-(4-Cyclopropyl-piperazin-1-ylmethyl)-benzofuran-6-yloxy]-thiazolo[4,5-b]pyridine], the figures for the IC50 in assay [1] and in assay [2] were 0.13 µM and 0.012 µM, respectively.

Consider `CC(=O)N[C@H]1C[C@H]2CC[C@@H](C1)N2Cc1cc2cc(Oc3nc4ncccc4s3)ccc2o1` [Example 87, meso-endo-N-{8-[5-(Thiazolo[4,5-b]pyridin-2-yloxy)-benzofuran-2-ylmethyl]-8-aza-bicyclo[3.2.1]oct-3-yl}-acetamide], for which the half-maximal inhibitory concentration (IC50) in assay [1] worked out at 0.077 µM; in assay [2] it was 0.035 µM.

For `Fc1ccc(CNCc2coc3cc(Oc4nc5ncccc5s4)ccc23)cc1` [Example 345, (4-Fluoro-benzyl)-[6-(thiazolo[4,5-b]pyridin-2-yloxy)-benzofuran-3-ylmethyl]-amine], the IC50 in assay [1] came out at 0.072 µM; in assay [2] it was 0.007 µM.

As to `c1ccc2c(c1)CN(Cc1c[nH]c3cc(Oc4nc5ccccc5s4)ccc13)C2` [Example 6, 2-[3-(1,3-Dihydro-isoindol-2-ylmethyl)-1H-indol-6-yloxy]-benzothiazole], the values for the half-inhibitory concentration (IC50) in assay [1] and in assay [2] were 0.968 µM and 0.017 µM, respectively.

Regarding `CN(C)C1CCN(Cc2coc3cc(Oc4nc5ncccc5s4)ccc23)CC1` [Example 282, Dimethyl-{1-[6-(thiazolo[4,5-b]pyridin-2-yloxy)-benzofuran-3-ylmethyl]-piperidin-4-yl}-amine formate], the figures for the IC50 in assay [1] and in assay [2] were 0.072 µM and 0.017 µM, respectively.

Take `c1ccc2sc(Oc3ccc4c(CN5CCOCC5)c[nH]c4c3)nc2c1` [Example 3, 2-(3-Morpholin-4-ylmethyl-1H-indol-6-yloxy)-benzothiazole]: the IC50 was determined as 0.303 µM in assay [1] and 0.016 µM in assay [2].

As to `CC(C)(C)OC(=O)N1C[C@@H]2C[C@H]1CN2Cc1c[nH]c2cc(Oc3nc4ccccc4s3)ccc12` [Example 147, (1S,4S)-5-[6-(Benzothiazol-2-yloxy)-1H-indol-3-ylmethyl]-2,5-diaza-bicyclo[2.2.1]heptane-2-carboxylic acid tert-butyl ester], the IC50 in assay [1] was 0.568 µM; in assay [2] it was 0.012 µM.

On to `O=C1CCCN1C1CCN(Cc2c[nH]c3cc(Oc4nc5ncccc5s4)ccc23)CC1` [Example 20, 1-{1-[6-(Thiazolo[4,5-b]pyridin-2-yloxy)-1H-indol-3-ylmethyl]-piperidin-4-yl}-pyrrolidin-2-one], for which the IC50 in assay [1] is 0.081 µM; in assay [2] it was 0.002 µM.

With `O=C(O)C1CCN(Cc2c[nH]c3cc(Oc4nc5ccccc5s4)ccc23)CC1` [Example 45, 1-[6-(Benzothiazol-2-yloxy)-1H-indol-3-ylmethyl]-piperidine-4-carboxylic acid], the IC50 is 1.34 µM in assay [1] and 0.006 µM in assay [2].

Regarding `O=C1CCc2ccccc2N1Cc1coc2cc(Oc3nc4ncccc4s3)ccc12` [Example 397, 1-[6-(Thiazolo[4,5-b]pyridin-2-yloxy)-benzofuran-3-ylmethyl]-3,4-dihydro-1H-quinolin-2-one], the IC50 in assay [1] amounted to 0.82 µM; in assay [2], 0.016 µM.

As for `c1ccc2sc(Oc3cnc4c(CN5CCOCC5)c[nH]c4c3)nc2c1` [Example 32, 2-(3-Morpholin-4-ylmethyl-1H-pyrrolo[3,2-b]pyridin-6-yloxy)-benzothiazole], the results for the IC50 in assay [1] and in assay [2] were 0.258 µM and 0.096 µM, respectively.

On to `O=C(NCc1coc2cc(Oc3nc4ncccc4s3)ccc12)C1CCC(O)CC1` (centres unmarked) [Example 392, 4-Hydroxy-cyclohexanecarboxylic acid [6-(thiazolo[4,5-b]pyridin-2-yloxy)-benzofuran-3-ylmethyl]-amide], for which the values for the IC50 in assay [1] and in assay [2] were 0.29 µM and 0.029 µM, respectively.

With `O=C(O)CN[C@H]1C[C@H]2CC[C@@H](C1)N2Cc1cc2ccc(Oc3nc4ccccc4s3)cc2o1` [Example 81, meso-endo-{8-[6-(Benzothiazol-2-yloxy)-benzofuran-2-ylmethyl]-8-aza-bicyclo[3.2.1]oct-3-ylamino}-acetic acid], the IC50 in assay [1] stood at 0.45 µM; in assay [2], 0.029 µM.

Take `CC(=O)N1[C@@H]2CC[C@H]1CN(Cc1coc3cc(Oc4nc5ncccc5s4)ccc13)C2` [Example 295, meso-1-{3-[6-(Thiazolo[4,5-b]pyridin-2-yloxy)-benzofuran-3-ylmethyl]-3,8-diaza-bicyclo[3.2.1]oct-8-yl}-ethanone formate]: the IC50 in assay [1] is 0.055 µM; in assay [2], 0.004 µM.

As for `CS(=O)(=O)N1C[C@@H]2CC[C@H]1CN2Cc1coc2cc(Oc3nc4ncccc4s3)ccc12` [Example 245, (1S,4S)-2-Methanesulfonyl-5-[6-(thiazolo[4,5-b]pyridin-2-yloxy)-benzofuran-3-ylmethyl]-2,5-diaza-bicyclo[2.2.2]octane], the IC50 in assay [1] was 0.032 µM; in assay [2], 0.004 µM.

In the case of `NC(=O)C1CCN(Cc2cc3ccc(Oc4nc5ccccc5s4)cc3[nH]2)CC1` [Example 69, 1-[6-(Benzothiazol-2-yloxy)-1H-indol-2-ylmethyl]-piperidine-4-carboxylic acid amide], the IC50 in assay [1] stood at 1.22 µM; in assay [2] it was 0.047 µM.

Turning to `O=C(c1coc2cc(Oc3nc4ncccc4s3)ccc12)N1CCC(c2ccccc2)CC1` [Example 377, (4-Phenyl-piperidin-1-yl)-[6-(thiazolo[4,5-b]pyridin-2-yloxy)-benzofuran-3-yl]-methanone], the IC50 in assay [1] was determined as 0.41 µM; in assay [2], 0.02 µM.

By IC50 is commonly meant the concentration that inhibits the measured activity by half.

Values taken from patent US8399465B2, “Compounds with two fused bicyclic heteroaryl moieties as modulators of leukotriene A4 hydrolase” (Janssen Pharmaceutica NV, priority 2009, dated 2013).
